Counter-ions that a name gives are not always drawn. Like-named read-outs stand apart in the source and are kept apart here.
What was measured:
Test in all cases: biochemical
MMP-13 = target: T1, MMP-13 (Homo sapiens, UniProt P45452); settings: read-out: MMP-13 IC50
T1 construct: made in house; host or cells: baculovirus / insect cells
Method in brief: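 Assay buffer 100 mM Tris-HCl, 100 mM NaCl, 10 mM CaCl2, pH 7.5. Activated MMP + inhibitor, 5 min RT; then methoxycoumarin peptide substrate, 4 μM final. Readout fluorescence; IC50 calculated.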

MMP-2 = target: T2, MMP-2 (Homo sapiens, UniProt P08253); settings: read-out: MMP-2 IC50
T2 construct: made in house; provided by Dr. Gregory Goldberg, Washington University
T2 sequence (P08253 110-660): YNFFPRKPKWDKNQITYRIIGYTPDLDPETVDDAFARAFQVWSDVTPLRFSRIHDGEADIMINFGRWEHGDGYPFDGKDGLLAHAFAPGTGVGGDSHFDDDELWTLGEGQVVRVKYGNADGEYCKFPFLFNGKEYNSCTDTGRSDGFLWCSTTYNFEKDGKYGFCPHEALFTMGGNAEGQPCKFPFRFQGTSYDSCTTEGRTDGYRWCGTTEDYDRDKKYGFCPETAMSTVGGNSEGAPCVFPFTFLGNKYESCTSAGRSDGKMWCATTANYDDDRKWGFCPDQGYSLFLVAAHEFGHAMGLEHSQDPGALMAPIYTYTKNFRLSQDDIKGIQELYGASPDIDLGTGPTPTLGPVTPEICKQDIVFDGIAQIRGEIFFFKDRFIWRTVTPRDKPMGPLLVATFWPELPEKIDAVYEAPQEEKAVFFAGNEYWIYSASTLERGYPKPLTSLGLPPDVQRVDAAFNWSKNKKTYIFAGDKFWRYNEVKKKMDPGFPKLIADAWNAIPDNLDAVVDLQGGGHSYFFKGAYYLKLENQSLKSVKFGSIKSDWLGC
Method in brief: (§1)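 APMA- or trypsin-activated enzymes were preincubated with inhibitor for 5 min at room temperature, then the fluorogenic substrate MCA-Pro-Leu-Gly-Leu-Dpa-Ala-Arg-NH2 was added to a final 4 μM.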

MMP-1 = target: T3, MMP-1 (Homo sapiens, UniProt P03956); settings: read-out: MMP-1 IC50
T3 construct: made in house; host or cells: transfected HT-1080 cells (provided by Dr. Harold Welgus, Washington University)
T3 sequence (P03956 100-469): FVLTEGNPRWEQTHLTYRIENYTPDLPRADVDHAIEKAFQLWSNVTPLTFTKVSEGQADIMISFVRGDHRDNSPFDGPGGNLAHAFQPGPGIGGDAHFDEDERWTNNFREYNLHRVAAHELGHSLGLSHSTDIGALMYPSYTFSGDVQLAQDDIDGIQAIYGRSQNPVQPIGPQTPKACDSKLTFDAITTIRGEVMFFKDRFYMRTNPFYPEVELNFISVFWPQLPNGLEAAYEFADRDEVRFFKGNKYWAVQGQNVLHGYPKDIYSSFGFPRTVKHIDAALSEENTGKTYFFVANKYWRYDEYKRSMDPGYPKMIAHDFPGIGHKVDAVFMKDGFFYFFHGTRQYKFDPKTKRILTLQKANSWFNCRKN
Method in brief: as §1

[1] = recombinant human MMP-13, MCA peptide substrate 4 μM, pH 7.5, room temperature
[2] = recombinant human MMP-2, MCA peptide substrate 4 μM, pH 7.5, room temperature
[3] = recombinant human MMP-1, MCA peptide substrate 4 μM, pH 7.5, room temperature

| SMILES | IC50 (MMP-13; [1]) [nM] | IC50 (MMP-2; [2]) [nM] | IC50 (MMP-1; [3]) [nM] | IC50 (MMP-13) [nM] | IC50 (MMP-2) [nM] | IC50 (MMP-1) [nM] |
| --- | --- | --- | --- | --- | --- | --- |
| O=C(CN1CCOCC1)N1CCC(C(=O)NO)(S(=O)(=O)c2ccc(Oc3ccc(C(F)(F)F)cc3)cc2)CC1 [Example 319] | 0.5 | 0.2 | > 10000 |  |  |  |
| O=C(C1CCN(c2ccc(S(=O)(=O)C3(C(=O)NO)CCOCC3)cc2)CC1)N1CCN(c2ccc(C(F)(F)F)cc2[N+](=O)[O-])CC1 [Example 32] |  |  |  | 10 | 800 | > 10000 |
| COc1c(F)c(F)c(COC2CCN(c3ccc(S(=O)(=O)C4(C(=O)NO)CCOCC4)cc3)CC2)c(F)c1F [Example 561] | 6 | 500 | > 10000 |  |  |  |
| COc1ccccc1C1CCN(c2ccc(S(=O)(=O)C3(C(=O)NO)CCSCC3)cc2)CC1 [Example 153] |  |  |  | 50 | 5000 | > 10000 |
| COc1ccc(C2CCN(c3ccc(S(=O)(=O)C4(C(=O)NO)CCOCC4)cc3)CC2)c(OC)c1 [Example 833] | 11 | 1750 | > 10000 |  |  |  |
| COCCN1CCC(C(=O)NO)(S(=O)(=O)c2ccc(N3CCC(C(=O)NC4Cc5ccccc5C4)CC3)cc2)CC1 [Example 242, 4-[[4-[4-[[(2,3-Dihydro-1H-inden-2-yl)amino]carbonyl]-1-piperidinyl]phenyl]sulfonyl]-N-hydroxy-1-(2-methoxyethyl)-4-piperidinecarboxamide, Monohydrochloride] | 42.5 | 1500 | > 10000 |  |  |  |
| CCN(CC(=O)N1CCC(C(=O)NO)(S(=O)(=O)c2ccc(Oc3ccc(C(F)(F)F)cc3)cc2)CC1)Cc1ccncc1 [Example 329] | 0.9 | 0.4 | > 10000 |  |  |  |
| O=C(c1cccc(OC(F)(F)F)c1)C1CCN(c2ccc(S(=O)(=O)C3(C(=O)NO)CCOCC3)cc2)CC1 [Example 725] | 25.1 | 210 | > 10000 |  |  |  |
| CN(C)CCN(C)C(=O)C1CCN(c2ccc(S(=O)(=O)C3(C(=O)NO)CCOCC3)cc2)CC1 [Example 51] | 370 | 7000 | > 10000 |  |  |  |
| O=C(NO)C1(S(=O)(=O)c2ccc(N3CCCCCC3)cc2)CCOCC1 [Example 212] | 160 | 240 | > 10000 |  |  |  |
| O=C(NO)C1(S(=O)(=O)c2ccc(N3CCC(Oc4cc(F)cc(F)c4)CC3)cc2)CCOCC1 [Example 545] | 7.7 | 120 | > 10000 |  |  |  |
| O=C(NO)C1(S(=O)(=O)c2ccc(OC3CCC(OCc4cccc(OC(F)(F)F)c4)C3)cc2)CCOCC1 (stereo not drawn) [Example 714] | 28.8 | 420 | > 10000 |  |  |  |
| Cc1cccc(S(=O)(=O)N2CCN(c3ccc(S(=O)(=O)C4(C(=O)NO)CCOCC4)cc3)CC2)c1 [Example 671] | 6 | 130 | > 10000 |  |  |  |
| COc1cccc(COC2CCC(Oc3ccc(S(=O)(=O)C4(C(=O)NO)CCOCC4)cc3)C2)c1 (stereo not drawn) [Example 694] | 3.1 | 23.2 | > 10000 |  |  |  |
| Cc1ccc(N2CCC(C(=O)NO)(S(=O)(=O)c3ccc(Oc4ccc(OC(F)(F)F)cc4)cc3)CC2)cc1 [Example 229, N-Hydroxy-1-(4-methylphenyl)-4-[[4-[4-(trifluoromethoxy)phenoxy]phenyl]sulfonyl]-4-piperidinecarboxamide Monohydrochloride] | 0.18 | 0.1 | > 10000 |  |  |  |
| COc1cccc(NC(=O)C2CCN(c3ccc(S(=O)(=O)C4(C(=O)NO)CCOCC4)cc3)CC2)c1 [Example 72] | 13 | 800 | > 10000 |  |  |  |
| O=C(NO)C1(S(=O)(=O)c2ccc(N3CCC(n4cnc5ccccc54)CC3)cc2)CCOCC1 [Example 475] | 27.1 | 500 | > 10000 |  |  |  |
| O=C(c1ccc(C(F)(F)F)c(F)c1)C1CCN(c2ccc(S(=O)(=O)C3(C(=O)NO)CCOCC3)cc2)CC1 [Example 738] | 22 | 270 | > 10000 |  |  |  |
| O=C(NCc1ccccc1)N1CC(Oc2ccc(S(=O)(=O)C3(C(=O)NO)CCOCC3)cc2)C1 [Example 658] | 12.2 | 1000 | > 10000 |  |  |  |
